Measured values reported in patent US6500828B1, “Triazolo-pyridazine derivatives as ligands for gaba receptors” (Merck Sharp & Dohme Ltd., priority 1999, dated 2002).

melting point: 182 °C
SMILES: CCn1ncnc1COc1nn2c(-c3c(F)cccc3F)nnc2cc1C(C)(C)C [Example 3, 3-(2,6-Difluorophenyl)-7-(1,1-dimethylethyl)-6-(2-ethyl-2H-1,2,4-triazol-3-ylmethoxy)-1,2,4-triazolo[4,3-b]pyridazine]
